In ChEMBL document CHEMBL1124032, “Quantitative structure-activity relationships for the inhibition of Escherichia coli dihydrofolate reductase by 5-(substituted benzyl)-2,4-diaminopyrimidines” (1988):

Key:
[1] = target: T1, Dihydrofolate reductase (Escherichia coli) (UniProt P0ABQ4)
T1 sequence (whole entry): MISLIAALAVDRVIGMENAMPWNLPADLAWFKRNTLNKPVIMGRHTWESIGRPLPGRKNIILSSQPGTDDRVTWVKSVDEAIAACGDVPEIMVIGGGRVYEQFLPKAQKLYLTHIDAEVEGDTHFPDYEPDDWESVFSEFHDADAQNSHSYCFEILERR
Description: Apparent inhibitory (log 1/Ki) activity against Escherichia coli dihydrofolate reductase

Escherichia coli [2] = assay: The logarithm of the inverse of the concentration (log 1/C) for the inhibition of Escherichia coli MB 1428 growth by 80%; format: functional
Escherichia coli [3] = assay: The logarithm of the inverse of the concentration (log 1/C) for the inhibition of Escherichia coli 1515 (Escherichia coli) growth by 80%; format: functional

Structure (SMILES)	Log 1/Ki app [1]	Log 1/C (Escherichia coli [2])	Log 1/C (Escherichia coli [3])
Nc1ncc(Cc2ccc(OCc3ccccc3)cc2)c(N)n1	8.7	–	–
COc1ccc(Cc2cnc(N)nc2N)cc1OCc1ccccc1	10	5.02	4.96
CCCOc1cc(Cc2cnc(N)nc2N)cc(OCCC)c1	8.8	–	–
CC(=O)Nc1ccc(Cc2cnc(N)nc2N)cc1[N+](=O)[O-]	6.97	–	–
Nc1ncc(Cc2ccc(OC(F)(F)F)cc2)c(N)n1	6.57	–	–
CCCCOc1cc(Cc2cnc(N)nc2N)cc(Br)c1OC	8.96	6.24	5.02
Cc1cc(C)cc(Cc2cnc(N)nc2N)c1	8.05	–	–
CCOc1cc(Cc2cnc(N)nc2N)cc(OCC)c1	9.11	4.77	6.54
CS(=O)(=O)Oc1ccc(Cc2cnc(N)nc2N)cc1	8.15	–	–
COc1cc(Cc2cnc(N)nc2N)ccc1O	9.05	3.51	6.45
COc1ccc(Cc2cnc(N)nc2N)cc1OS(C)(=O)=O	8.96	4.13	6.42
Nc1ncc(Cc2ccc([N+](=O)[O-])cc2)c(N)n1	6.2	–	–
CCCOc1cc(Cc2cnc(N)nc2N)cc(OCC)c1	8.49	–	–
Nc1ncc(Cc2cc(OCc3ccccc3)cc(OCc3ccccc3)c2)c(N)n1	8.77	–	–
CCCCOc1ccc(Cc2cnc(N)nc2N)cc1OC	9.01	4.98	5.93
COCCOc1cc(Cc2cnc(N)nc2N)ccc1OC	8.74	–	–
COc1ccc(Cc2cnc(N)nc2N)cc1C(F)(F)F	7.69	–	–
COc1cc(Cc2cnc(N)nc2N)ccc1OCc1ccccc1	9.43	5.02	4.96
COCCOc1ccc(Cc2cnc(N)nc2N)cc1OC	9.25	4.3	5.82
CCCOc1cc(Cc2cnc(N)nc2N)cc(Br)c1OC	8.96	6.07	4.91
CS(=O)(=O)Oc1cccc(Cc2cnc(N)nc2N)c1	6.92	–	–
